These results are taken from patent US4801613A, “Bradykinin antagonist peptides” (Nova Technology Limited Partnership, priority 1987, dated 1989).

The subject of data set [1] is kininases. The settings on record: rat, in vivo.
For the next data set, the system named is isolated rat uterus. It counts as cell-based. Here is the method:
(§1) The bradykinin antagonists were assayed on isolated rat uterus in natural or induced estrus and on guinea pig ileum, according to the commonly accepted assay methods for bradykinin and related kinins as described by Trautschold (Handbook of Expt. Pharmacol. Vol. 25, Springer Verlag, pp 53-55, 1970) for inhibition of the myotropic activity of bradykinin. The inhibition potencies, as determined according to the commonly accepted manner described by Schild for antagonists of biologically active compounds (Br. J. Pharmacol. 2:189, 1947), are determined on isolated rat uterus (RUT) and isolated guinea pig ileum (GPI). In the assays, a dose-response curve is determined for the reference substance bradykinin. The dose of bradykinin which produced a half maximal contraction of tissue is the ED50 dose. An amount of bradykinin equivalent to twice the ED50 dose is administered to the tissue 30 seconds after the start of incubation of the tissue with a dose of antagonist. Doses of antagonist are increased in this protocol until pre-incubation with a dose of antagonist reduces the contraction in response to the double ED50 dose of bradykinin to response of a single ED50 dose of bradykinin. The pA2 value represents the negative logarithm of the molar concentration of antagonist necessary to reduce the response of a double ED50 dose of bradykinin to that of an ED50 dose. One unit of pA2 value represents an order of magnitude change in potency. For comparison, the negative log of the dose of BK, the dose which causes half maximal contraction of the tissues, is commonly known as the pD2 value. The pD2 value for bradykinin is 7.9 on the rat uterus and 7.4 on the guinea pig ileum.

A further data set relates to guinea pig ileum. It is filed as cell-based. Here is the method:
as §1
(§2) In each case, as shown, the BK-related antagonists inhibited contractions produced by BK-related agonists, but had no effect on the non-kinin myotropic peptide substances. The inhibition potencies are listed as pA2 values as described above.

The subject of data set [2] is isolated guinea pig ileum. It counts as cell-based. Here is the method: as §1, §2
Data set [3] relates to kininases. Particulars: anesthetized rat; single pass in the pulmonary circulation.
Data set [4] relates to kininases. The settings on record: anesthetized rat; Roblero, Ryan and Stewart 1973; cited from earlier work.
The conditions of data set [5]: Ferreira & Vane 1967; cited from earlier work.

Where two headings read alike, the source gives them in different places. Non-standard residues stand in square brackets, D forms with d. Residues, ends and D or L forms follow the SMILES beside them. No end group written: not given here. 2Thi = N[C@@H](Cc1cccs1)C(=O)O

For `N=C(N)NCCC[C@@H](N)C(=O)N[C@@H](CCCNC(=N)N)C(=O)N1CCC[C@H]1C(=O)N1CCC[C@H]1C(=O)NCC(=O)N[C@@H](Cc1ccccc1)C(=O)N[C@@H](CO)C(=O)N1CCC[C@H]1C(=O)N[C@@H](Cc1ccccc1)C(=O)N[C@@H](CCCNC(=N)N)C(=O)O` [DArg--BK] (H-[dR]RPPGFSPFR-OH), in the data set with kininases [1], the “% DESTRUCTION” value is recorded as 92%.
Turning to `N=C(N)NCCC[C@H](NC(=O)[C@H](Cc1ccccc1)NC(=O)[C@@H]1CCCN1C(=O)[C@H](CO)NC(=O)[C@H](Cc1ccccc1)NC(=O)CNC(=O)[C@@H]1CCCN1C(=O)[C@@H]1CCCN1C(=O)[C@H](CCCNC(=N)N)NC(=O)[C@H](N)CCCCN)C(=O)O` [DLys--BK], the “% DESTRUCTION” value in the data set on kininases [1] turned out to be 89%.
As to `N=C(N)NCCC[C@@H](N)C(=O)N[C@@H](CCCNC(=N)N)C(=O)N1CCC[C@H]1C(=O)N1CCC[C@H]1C(=O)NCC(=O)N[C@@H](Cc1cccs1)C(=O)N[C@@H](CO)C(=O)N[C@H](Cc1ccccc1)C(=O)N[C@@H](Cc1cccs1)C(=O)N[C@@H](CCCNC(=N)N)C(=O)O` [Example 15, DArg-Arg-Pro-Pro-Gly-Thi-Ser-DPhe-Thi-Arg] (H-[dR]RPPG[2Thi]S[dF][2Thi]R-OH), in the data set on isolated rat uterus, the “RUT pA2” value came to 5.2 and the pA2/RUT is 5.5. Moreover, in the data set on guinea pig ileum, the “GUINEA PIG ILEUM KAL (pA2)” value came to 6.7 and the “GUINEA PIG ILEUM MK--BK (pA2)” value came to 6.4. Besides, in data set [2], the “GUINEA PIG ILEUM BK (pA2)” value worked out at 6.1.
Consider `NCCCC[C@H](N)C(=O)N[C@@H](CCCN=C(N)N)C(=O)N1CCC[C@H]1C(=O)N1CCC[C@H]1C(=O)NCC(=O)N[C@@H](Cc1ccccc1)C(=O)N[C@@H](CO)C(=O)N1CCC[C@H]1C(=O)N[C@@H](Cc1ccccc1)C(=O)N[C@@H](CCCN=C(N)N)C(=O)O` [Lys--BK], for which the “% DESTRUCTION” value in the data set on kininases [1] is 95%.
The same measure, in the same setting: the figure for `N=C(N)NCCC[C@H](NC(=O)[C@H](Cc1ccccc1)NC(=O)[C@@H]1CCCN1C(=O)[C@H](CO)NC(=O)[C@H](Cc1ccccc1)NC(=O)CNC(=O)[C@@H]1CCCN1C(=O)[C@@H]1CCCN1C(=O)[C@H](CCCNC(=N)N)NC(=O)[C@H](CCCCN)NC(=O)[C@@H](N)CCCCN)C(=O)O` [Lys--Lys--BK] is 0%.
Take `N=C(N)NCCC[C@H](NC(=O)[C@H](Cc1cccs1)NC(=O)[C@@H]1CCCN1C(=O)[C@H](CO)NC(=O)[C@H](Cc1cccs1)NC(=O)CNC(=O)[C@@H]1CCCN1C(=O)[C@@H]1CCCN1C(=O)[C@H](CCCNC(=N)N)NC(=O)[C@H](CCCCN)NC(=O)[C@@H](N)CCCCN)C(=O)O` [Lys--Lys--Thi^5,8 --BK] (H-KKRPPG[2Thi]SP[2Thi]R-OH): the “% DESTRUCTION” value in the data set with kininases [3] is given as 0%.
For the compound `N=C(N)NCCC[C@H](NC(=O)[C@H](Cc1cccs1)NC(=O)[C@@H]1CCCN1C(=O)[C@H](CO)NC(=O)[C@H](Cc1cccs1)NC(=O)CNC(=O)[C@@H]1CCCN1C(=O)[C@@H]1CCCN1C(=O)[C@@H](N)CCCNC(=N)N)C(=O)O` [Thi^5,8 --BK] (H-RPPG[2Thi]SP[2Thi]R-OH), the “% DESTRUCTION” value with kininases [3] was 95%.
Take “RPPGFSPFR [Bradykinin (BK), Arg-Pro-Pro-Gly-Phe-Ser-Pro-Phe-Arg]”: in the data set on kininases [4], the “destruction on a single passage through the pulmonary circulation” value is recorded as 98-99%. For the same compound, in the data set with kininases [3], the “% DESTRUCTION” value is recorded as 98%. Moreover, the figures for the “pD2 value (negative log of dose causing half maximal contraction)” value (in the data set with isolated rat uterus (rat uterus); in data set [2] (guinea pig ileum)) were 7.9 and 7.4, respectively. In data set [5], the “half life in the systemic circulation” value was “less than 30 seconds”.
